Assay results published in US20060194814A1, “Benzamide compounds” (priority 2003, published 2006).
Where a name gives a salt, the structure may show the parent alone.

What was measured:
[1] = test system: MA-10 mouse Leydig tumor cells; assay: dbcAMP-induced progesterone synthesis in MA-10 cells; type: cell-based
Procedure: (§1) Culture media were then changed and cells were stimulated with 1 mM dbcAMP and the treatment for 24 to 48 hours. […] The synthesis of 20 —OH progesterone and progesterone in Y1 and MA-10 cell media respectively were measured by RIA (Brown et al., 1992). H295R human adrenal tumor cells were seeded in 48-well plates at 10^5 cells/well and incubated for 24 hours. […] At the end of the incubation time period, cells were treated with 1 mM dbcAMP for 48 hours. Cortisol levels in the media were determined by radioimmunoassay as previously described (Amri et al., 1996).

P-450scc = biological target: T1, P-450scc (Mus musculus, UniProt Q9QZ82); assay: 22R-hydroxycholesterol-induced 20á-hydroxyprogesterone synthesis in Y1 cells; type: cell-based
T1 construct: endogenous in cells; host or cells: Y1 mouse adrenal tumor cells
T1 sequence (Q9QZ82 37-526): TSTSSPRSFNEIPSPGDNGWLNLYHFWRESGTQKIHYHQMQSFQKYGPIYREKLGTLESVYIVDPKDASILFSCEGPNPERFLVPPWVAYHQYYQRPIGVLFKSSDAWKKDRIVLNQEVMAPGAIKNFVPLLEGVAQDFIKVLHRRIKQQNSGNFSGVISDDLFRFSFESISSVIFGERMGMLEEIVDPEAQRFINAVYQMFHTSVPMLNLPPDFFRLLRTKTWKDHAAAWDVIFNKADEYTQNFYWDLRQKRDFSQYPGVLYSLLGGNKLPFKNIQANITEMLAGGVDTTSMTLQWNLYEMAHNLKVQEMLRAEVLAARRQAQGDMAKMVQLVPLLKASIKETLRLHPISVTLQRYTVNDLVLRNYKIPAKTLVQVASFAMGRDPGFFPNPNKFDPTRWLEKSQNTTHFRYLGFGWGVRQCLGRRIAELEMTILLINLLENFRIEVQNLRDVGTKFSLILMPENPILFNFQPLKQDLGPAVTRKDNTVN
Procedure: as §1, with “Culture media were then changed and cells were stimulated with 1 mM dbcAMP and the treatment for 24 to 48 hours.” left out

HMG-CoA reductase = biological target: T2, HMG-CoA reductase (Mus musculus, UniProt Q01237); assay: Direct effect on HMG-CoA reductase activity in sonicated Y1 cell homogenates; type: biochemical; details: sonicated Y1 cells
T2 construct: endogenous in cells; host or cells: Y1 mouse adrenal tumor cells
T2 sequence (Q01237 1-887): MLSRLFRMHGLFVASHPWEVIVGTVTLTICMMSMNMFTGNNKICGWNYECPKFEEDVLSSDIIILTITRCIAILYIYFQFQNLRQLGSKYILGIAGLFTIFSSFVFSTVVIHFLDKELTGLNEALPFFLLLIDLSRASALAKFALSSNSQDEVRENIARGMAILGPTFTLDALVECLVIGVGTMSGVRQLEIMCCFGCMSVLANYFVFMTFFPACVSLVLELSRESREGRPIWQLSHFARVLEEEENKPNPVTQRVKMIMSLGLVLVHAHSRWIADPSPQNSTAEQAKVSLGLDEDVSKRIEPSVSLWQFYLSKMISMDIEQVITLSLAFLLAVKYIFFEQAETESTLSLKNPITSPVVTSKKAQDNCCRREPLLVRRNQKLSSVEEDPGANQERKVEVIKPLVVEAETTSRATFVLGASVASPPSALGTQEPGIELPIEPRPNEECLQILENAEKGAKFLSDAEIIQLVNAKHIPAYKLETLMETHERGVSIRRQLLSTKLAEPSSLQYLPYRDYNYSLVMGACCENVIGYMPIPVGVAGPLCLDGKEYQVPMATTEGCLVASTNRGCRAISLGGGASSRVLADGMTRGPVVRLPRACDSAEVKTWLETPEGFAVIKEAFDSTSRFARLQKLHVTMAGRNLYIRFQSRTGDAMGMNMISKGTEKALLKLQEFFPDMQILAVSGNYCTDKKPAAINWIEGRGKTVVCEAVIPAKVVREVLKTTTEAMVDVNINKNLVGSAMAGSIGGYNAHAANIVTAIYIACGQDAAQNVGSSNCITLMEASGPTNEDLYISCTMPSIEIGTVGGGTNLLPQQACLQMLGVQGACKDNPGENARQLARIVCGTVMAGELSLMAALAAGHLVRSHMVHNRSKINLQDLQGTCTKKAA
Procedure: Cells were washed twice with ice-cold PBS and incubated with ice-cold assay buffer (0.1M sucrose, 40 mM KH2PO4, 30 mM EDTA, 50 mM KCl, 5 mM DTT, 0.25% (v/v) of Brij 96, at pH 7.4) on ice for 20 minutes. After centrifugation for 3 minutes at 14000 g (4° C.) the supernatants were collected and used for HMG-CoA reductase activity assay. The total 150 l assay mixture contained 100-200 g protein and the NADPH-generating system (2.5 mM NADP, 20 mM glucose 6-phosphate and 20 U/ml glucose 6-phosphate dehydrogenase). The reaction was started by adding substrate (^14C-HMG-CoA, 0.1 Ci) and stopped after 45 minutes by adding 10-1 of HCl 6M. ^3H-mevalonolactone was also added to the samples as an extraction recovery marker. After an additional 30 minutes incubation time, to allow complete lactonization of the product, the mixture was centrifuged. The supernatant was applied to Bond-Elut NH2 column and eluted with 1 ml of toluene/acetone (3:1). The eluate was discarded and further 4 ml of toluene/acetone was applied to the column and collected in a scintillation vial for counting ^14C-mevalonate and ^3H-mevalonolactone signals (Berkhout et al., 1990).
In separate experiments cells were disrupted by sonication and then treated with procaine. The direct effect of the treatment on HMG-CoA reductase activity in the homogenates was determined as described above.

SMILES: CCN(CC)CCOC(=O)c1ccc(N)cc1 [SP01, procaine HCl]
- effect on dbcAMP-induced progesterone synthesis [1]: did not affect
- effect on 22R-hydroxycholesterol-induced steroidogenesis (P-450scc): did not inhibit
- direct effect on HMG-CoA reductase activity (HMG-CoA reductase): No direct effect
- HMG-CoA reductase activity (HMG-CoA reductase; 1 μM procaine): 9.9±0.01 pmol/min/mg protein
- HMG-CoA reductase activity (HMG-CoA reductase; 10 μM procaine): 10.3±0.6 pmol/min/mg protein
- HMG-CoA reductase activity (HMG-CoA reductase; 100 μM procaine): 10.1±0.1 pmol/min/mg protein
